# Patent publication US7307063B2, “Melanocortin metallopeptides for treatment of sexual dysfunction” (Palatin Technologies, Inc., priority 2001, dated 2007)
# Where “and” joins values, the source holds several entries; their conditions need not be identical. Equal values may be shown once. Non-standard residues stand in square brackets, D forms with d. No end group written: not given here. *: point of attachment. Tiq = 1,2,3,4-tetrahydroisoquinoline-1-carboxylic acid; Acetyl(2-naphthyl) = O=C(Cc1ccc2ccccc2c1)*; Bip = N[C@@H](Cc1ccc(-c2ccccc2)cc1)C(=O)O; dDip = N[C@@H](C(=O)O)C(c1ccccc1)c1ccccc1; 2Nal = N[C@@H](Cc1ccc2ccccc2c1)C(=O)O; dIgl = N[C@@H](C(=O)O)C1Cc2ccccc2C1; Igl = N[C@H](C(=O)O)C1Cc2ccccc2C1; Tic = O=C(O)[C@@H]1Cc2ccccc2CN1; d(pGlu) = O=C1CC[C@H](C(=O)O)N1; aThr = C[C@H](O)[C@H](N)C(=O)O; code Z = not defined here
# How the values were obtained:
# Male Sprague-Dawley rats = test: Combination penile erection behavior studies: antagonist IV before IN agonist; assay type: in vivo, rat;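 for Mean Penile Erections/Rat: Erections counted over 30 min observation after IN dosing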;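 for Percent with Penile Erections: Erections counted over 30 min observation after IN dosing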
# Protocol: Conditions were as in Example 3 except as noted. Groups of 5-6 rats received an IV dose of either placebo or antagonist 5 minutes prior to an IN dose of either placebo or agonist. Two antagonists were used: ReO[Heptanoyl-Ser(Bzl)-D-Nal 2′-Arg-Trp-Cys-NH2] and SHU9119 (Hruby V J, Lu D, Sharma S D, et al. J Med Chem 38:3454-3461 (1995)), Ac-Nle-cyclo(-Asp-His-D-Nal 2′-Arg-Trp-Lys)-NH2. The agonist used was Ac-Nle-cyclo(-Asp-His-D-Phe-Arg-Trp-Lys)-OH. Immediately after IN treatment, rats were placed into individual Lucite cages for observation. […] In combination studies, the antagonist was dosed IV 5 minutes prior to a 50 μg/kg IN dose of Ac-Nle-cyclo(-Asp-His-D-Phe-Arg-Trp-Lys)-OH.
# These studies were conducted as described above in Example 4 with metallopeptide antagonists administered IV five minutes before IN administration of 50 μg/kg Ac-Nle-cyclo(-Asp-His-D-Phe-Arg-Trp-Lys)-OH. […] The potency of these antagonists also correlated with their relative binding affinities in the in vitro binding assays.
# hMC5-R = molecular target: T1, hMC5-R (Homo sapiens, UniProt P33032); test: Competitive binding assay: inhibition of 125I-NDP-α-MSH binding to HEK-293 membranes with cloned human receptor subtype 5; conditions: Table 6; 1 μM; mean of triplicate
# T1 construct: expressed in transfected cells; host or cells: HEK-293
# T1 sequence (P33032 whole entry): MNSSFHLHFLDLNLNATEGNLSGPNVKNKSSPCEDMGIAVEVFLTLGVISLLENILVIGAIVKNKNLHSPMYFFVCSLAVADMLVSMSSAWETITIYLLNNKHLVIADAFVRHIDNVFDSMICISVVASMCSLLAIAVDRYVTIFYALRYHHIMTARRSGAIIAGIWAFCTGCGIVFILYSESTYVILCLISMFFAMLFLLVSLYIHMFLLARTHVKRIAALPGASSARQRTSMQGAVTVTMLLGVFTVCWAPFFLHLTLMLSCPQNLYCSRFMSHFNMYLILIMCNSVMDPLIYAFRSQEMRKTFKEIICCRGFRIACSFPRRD
# Method in brief: (§1)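 Percent inhibition of 125I-NDP-α-MSH binding, from cpm normalized to 100% specific binding (total minus binding with 1 μM α-MSH). Test compounds were Re-complexed metallopeptides at a chosen concentration; triplicate means for the added peptides.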
# MC1-R = molecular target: T2, MC1-R (Mus musculus, UniProt Q01727); test: Competitive binding assay: inhibition of 125I-NDP-α-MSH binding to membranes from B16-F10 mouse melanoma cells; conditions: Table 6; 1 μM; mean of triplicate
# T2 construct: MC1-R membranes were isolated from B16—F10 mouse melanoma cells; endogenous in cells; host or cells: B16-F10 mouse melanoma cells
# T2 sequence (Q01727 whole entry): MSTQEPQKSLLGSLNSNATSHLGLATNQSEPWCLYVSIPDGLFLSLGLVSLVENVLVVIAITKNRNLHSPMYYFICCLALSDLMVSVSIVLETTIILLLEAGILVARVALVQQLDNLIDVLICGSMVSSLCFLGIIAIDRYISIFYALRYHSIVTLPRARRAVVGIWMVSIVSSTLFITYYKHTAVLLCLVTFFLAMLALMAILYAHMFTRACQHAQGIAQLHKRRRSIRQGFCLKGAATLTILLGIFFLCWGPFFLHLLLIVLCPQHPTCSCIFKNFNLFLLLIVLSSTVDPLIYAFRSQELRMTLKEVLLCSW
# Method in brief: as §1
# MC4-R = molecular target: T3, MC4-R (Homo sapiens, UniProt P32245); test: Competitive binding assay: inhibition of 125I-NDP-α-MSH binding to HEK-293 membranes with cloned human receptor subtype 4; conditions: Table 6; 1 μM; mean of triplicate
# T3 construct: expressed in transfected cells; host or cells: HEK-293
# T3 sequence (P32245 whole entry): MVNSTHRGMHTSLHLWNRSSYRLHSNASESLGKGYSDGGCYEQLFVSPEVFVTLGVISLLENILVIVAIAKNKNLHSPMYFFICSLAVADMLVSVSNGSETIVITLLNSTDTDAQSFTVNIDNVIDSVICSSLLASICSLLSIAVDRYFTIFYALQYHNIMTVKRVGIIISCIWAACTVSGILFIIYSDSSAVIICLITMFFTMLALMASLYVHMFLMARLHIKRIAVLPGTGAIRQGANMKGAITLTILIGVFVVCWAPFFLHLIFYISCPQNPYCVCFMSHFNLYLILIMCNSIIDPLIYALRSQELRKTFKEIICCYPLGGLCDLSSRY
# Method in brief: as §1
# hMC2-R = molecular target: T4, hMC2-R (Homo sapiens, UniProt P41968); test: Competitive binding assay of additional compounds, Table 6 hMC2-R; conditions: 1 μM, mean of triplicate
# T4 construct: expressed in transfected cells; host or cells: HEK-293
# T4 sequence (P41968 whole entry): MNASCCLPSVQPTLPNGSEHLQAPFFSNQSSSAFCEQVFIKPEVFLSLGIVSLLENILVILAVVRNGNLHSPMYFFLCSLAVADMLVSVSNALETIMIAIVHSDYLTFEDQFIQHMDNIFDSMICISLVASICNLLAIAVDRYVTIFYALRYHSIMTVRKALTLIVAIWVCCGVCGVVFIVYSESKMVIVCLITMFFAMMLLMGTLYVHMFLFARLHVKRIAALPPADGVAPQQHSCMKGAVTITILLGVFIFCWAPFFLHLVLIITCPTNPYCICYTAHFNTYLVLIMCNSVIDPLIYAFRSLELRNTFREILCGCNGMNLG
# [1] = combination: antagonist 5 μg/kg IV 5 min prior to 50 μg/kg IN Ac-Nle-cyclo(-Asp-His-D-Phe-Arg-Trp-Lys)-OH
# [2] = agonist alone 50 μg/kg IN, arm of the ReO[Heptanoyl-Ser(Bzl)-D-Nal 2′-Arg-Trp-Cys-NH2] study
# [3] = agonist alone 50 μg/kg IN, arm of the SHU9119 study
Substance,% Inhibition of Binding hMC5-R (hMC5-R),% Inhibition of Binding MC1-R (MC1-R),% Inhibition of Binding hMC4-R (MC4-R),% Inhibition of Binding hMC2-R (hMC2-R),further results
Ac-Nle-cyclo(-Asp-His-D-Nal 2′-Arg-Trp-Lys)-NH2,,,,,"Mean Penile Erections/Rat (Male Sprague-Dawley rats; antagonist alone, 5 μg/kg IV): 0; Percent with Penile Erections (Male Sprague-Dawley rats; antagonist alone, 5 μg/kg IV): 0%; Mean Penile Erections/Rat (Male Sprague-Dawley rats; [1]): 0; Percent with Penile Erections (Male Sprague-Dawley rats; [1]): 0%; Effect on erectile behavior induced by Ac-Nle-cyclo(-Asp-His-D-Phe-Arg-Trp-Lys)-OH, in words (Male Sprague-Dawley rats; rats, antagonist IV before IN agonist): blocked"
Ac-Nle-cyclo(-Asp-His-D-Phe-Arg-Trp-Lys)-OH,,,,,Mean Penile Erections/Rat (Male Sprague-Dawley rats; [2]): 1.2 ± 0.3; Percent with Penile Erections (Male Sprague-Dawley rats; [2]): 83%; Mean Penile Erections/Rat (Male Sprague-Dawley rats; [3]): 1.6 ± 0.2; Percent with Penile Erections (Male Sprague-Dawley rats; [3]): 100%
Nal 2′-D-Phe-Arg-Trp-Cys-NH2 ([2Nal][dF]RWC-NH2; also: metal complex),62%,8%,20%,0%,
Naphthlyl-2-acetyl-D-Phe-Arg-Cys-Trp-NH2 ({Acetyl(2-naphthyl)}-[dF]RCW-NH2; also: metal complex),56%,7%,0%,0%,
Pro-D-Phe-Arg-Cys-Trp-NH2 (P[dF]RCW-NH2; also: metal complex),33%,27%,2%,0%,
Pro-D-Phe-Arg-Trp-Cys-NH2 (P[dF]RWC-NH2; also: metal complex),0%,39%,14%,0%,
Ser(Bzl)-D-Nal 2′-Arg-Nal 2′-Cys-NH2,91%,18%,71%,23%,
Ser(Bzl)-D-Phe-Arg-Trp-Cys-NH2 ({Ser(Bzl)}-[dF]RWC-NH2; also: metal complex),69%,27%,28%,0%,
Tic-D-Nal-2′-Arg-Trp-Cys-NH2,83%,10%,92%,52%,
Tic-D-Phe(2′-Cl)-Arg-Trp-Cys-NH2,59%,15%,69%,26%,
Tic-D-Phe(3′-Cl)-Arg-Trp-Cys-NH2,76%,18%,62%,41%,
Tic-D-Phe(4′-Cl)-Arg-Cys-NH2,42%,0%,3%,0%,
Tic-D-Phe(4′-Cl)-Arg-Trp-Cys-NH2,90%,45%,88%,71%,
Tic-D-Phe(4′-Cl)-Gln-Cys-NH2,13%,2%,0%,3%,
Tic-D-Phe(4′-Cl)-His-Cys-NH2,37%,15%,0%,0%,
Tic-D-Phe(4′-Cl)-Lys-Cys-NH2,84%,16%,6%,0%,
Tic-D-Phe-Arg-Trp-Cys-NH2 ([Tic][dF]RWC-NH2; also: metal complex),69%,14%,64%,25%,
Tiq-D-Phe-Arg-Cys-Trp-NH2 (Tiq-[dF]RCW-NH2; also: metal complex),56%,53%,16%,3%,
Tiq-D-Phe-Arg-Trp-Cys-NH2 (Tiq-[dF]RWC-NH2; also: metal complex),55%,7%,8%,7%,
"Z-D-Pyr-D-Phe-Arg-Trp-Cys-NH2 ({code Z}-[d(pGlu)][dF]RWC-NH2; reading uncertain; also: metal complex, printed as Z-D-Pyr-D-Phe-Arg-Trp-Cys-NH2)",28%,44%,46%,16%,
[Bip][dF]RWC-NH2,51%,0%,19%,0%,
[Igl][dF]RCW-NH2,67% and 64%,38% and 36%,14% and 20%,7% and 0%,
[Igl][dF]RWC-NH2,36%,70%,62%,0%,
[dDip][dF]RCW-NH2,53%,58%,2%,8%,
[dDip][dF]RWC-NH2,8%,23%,34%,0%,
[dIgl][dF]RCW-NH2,39%,49%,15%,12%,
[dIgl][dF]RWC-NH2,63%,2%,8%,0%,
[dP][dF]RCW-NH2,67%,53%,13%,0%,
[dP][dF]RWC-NH2,35%,1%,18%,0%,
allo-Thr-D-Phe-Arg-Cys-Trp-NH2 ([aThr][dF]RCW-NH2; also: metal complex),31%,66%,0%,5%,
